Source: US11319347B2, “Peptide compound and method for producing same, composition for screening use, and method for selecting peptide compound” (FUJIFILM Corporation, priority 2017, dated 2022)
Starred links: 1 amine or outer side, 2 acyl side, 3 side chain; linkers in the order of their positions; H or OH if unused. Positions of bridges follow the written chain, without caps; N, C: chain ends. Non-standard residues stand in square brackets, D forms with d. Residues, ends and D or L forms follow the SMILES beside them. 2Pal(6-thiazolin-2-yl-4R-CO) = O=C([C@H](Cc1cccc(C2=N[C@H](C(=O)[*:3])CS2)n1)N[*:1])[*:2]; Phe(3-(4R-CO-2-thiazolinyl)) = O=C([C@H](Cc1cccc(C2=N[C@H](C(=O)[*:3])CS2)c1)N[*:1])[*:2]; dCha = N[C@H](CC1CCCCC1)C(=O)O

Tests used:
[1] = Metabolic stability of cyclic peptides in human liver microsomes (HLM residual rate); assay type: in vitro ADME; settings: 1 μmol/L, human liver microsomes 0.5 mg protein/mL, 37° C., 20 minutes, NADPH and UDPGA
Protocol: Test of metabolic stability of cyclic peptide in human liver microsome
An experiment using human liver microsomes (HLMs) was carried out in order to compare and examine the metabolic stability of the synthesized cyclic peptides.
The compound with a final concentration of 1 μmol/L was incubated in human liver microsomes (BD Cat #452117) prepared to a final concentration of 0.5 mg protein/mL using 100 mmol/L phosphate buffer (pH 7.4) at 37° C. for 20 minutes in the presence of reduced nicotinamide adenine dinucleotide phosphate (NADPH) and uridine 5′-diphosphate-α-D-glucuronic acid (UDPGA). Deproteinization treatment with acetonitrile was carried out, the amount of unaltered substance remaining was quantified using LC/MS/MS, and the residual rate (%) in 20 minutes was calculated. The HLM residual rate (%) obtained by this method is described in the following table.
(§1) Evaluation standards are as follows.

[2] = Membrane permeability of synthesized cyclic peptides by PAMPA (Measurement Method A: 1 μmol/L; Method B: 10 μmol/L); assay type: in vitro ADME; settings: Measurement method A, 25° C., 4 hours
Protocol: Evaluation of membrane permeability of synthesized cyclic peptide by PAMPA method In order to compare and examine the membrane permeability of the synthesized cyclic peptide, parallel artificial membrane permeability assay (PAMPA) was carried out.
An artificial phospholipid membrane was produced by adding 5 μL of a phospholipid organic solvent solution consisting of L-α-phosphatidylcholine (Avanti Polar Lipids, Inc., Cat. 840051P, 1.67%), 1,2-dioleoyl-sn-glycero-3-phospho-L-serine (Avanti Polar Lipids, Inc., Cat. 840035P, 0.33%), and n-dodecane special grade (Wako Pure Chemical Industries, Ltd., 047-21612)/1-octanol reagent special grade (Kanto Chemical Co., Inc., Cat. 31013-08)=10:1 to Filter Plate (Merck Millipore Corporation, Cat. MAIPN4550).
475 μL of 50 mmol/L potassium phosphate buffer (KPB, pH 7.4 or pH 6.5) was added to 25 μL of a DMSO solution containing the compound at a concentration of 20 μmol/L, so that the compound was diluted to a final concentration of 1 μmol/L. 300 μL of the compound solution was added to the lower side (donor side) of PAMPA 96-well plate (Filter Plate (Merck Millipore Corporation, Cat. MAIPN4550)) with an artificial phospholipid membrane being interposed therebetween. 200 μL of 5% DMSO KPB (pH 7.4) was added to the upper side (acceptor side) with the artificial phospholipid membrane being interposed therebetween. A permeation test through an artificial phospholipid membrane was carried out at 25° C. for 4 hours. The compound concentration in the solution in the donor plate and the acceptor plate was measured by LC/MS/MS, and the membrane permeation rate (Pe) of the compound was calculated from the following formula, assuming that C0 is an initial compound concentration in donor solution, t is a test time, A is a membrane filter area=0.3 cm^2, VD is a donor solution amount=300 μL, VA is an acceptor solution amount=200 μL, and CD(t) is a compound concentration in donor solution at time t, CA(t) is a compound concentration in acceptor solution at time t, and Cequilibrium=[CD(t)*VD+CA(t)*VA]/(VD+VA).
475 μL of 50 mmol/L potassium phosphate buffer (KPB, pH 7.4 or pH 6.5) was added to 25 μL of a DMSO solution containing the compound at a concentration of […], so that the compound was diluted to a final concentration of 10 μmol/L. The compound solution was added 300 μL each to the lower side (donor side) of an artificial phospholipid membrane of PAMPA 96-well plate (Filter Plate (Merck Millipore Corporation, Cat. MAIPN4550)). 200 μL of 5% DMSO KPB (pH 7.4) was added to the upper side (acceptor side) with the artificial phospholipid membrane being interposed therebetween. A permeation test through an artificial phospholipid membrane was carried out at 25° C. for 4 hours. The compound concentration in the solution in the donor plate and the acceptor plate was measured by LC/MS/MS, and the membrane permeation rate (Pe) of the compound was calculated from the following formula, assuming that Co is an initial compound concentration in donor solution, t is a test time, A is a membrane filter area=0.3 cm^2, VD is a donor solution amount=300 μL, VA is an acceptor solution amount=200 μL, and CD(t) is a compound concentration in donor solution at time t, CA(t) is a compound concentration in acceptor solution at time t, and Cequilibrium=[CD(t)*VD+CA(t)*VA]/(VD+VA).
The membrane permeability (Pe(10^−6 cm/s)) obtained by this method is described in the following table.
as §1

SMILES | HLM residual rate [1] | Pe(10^−6 cm/sec) [2]
N=C(N)NCCC[C@@H]1NC(=O)[C@H](Cc2c[nH]c3ccccc23)NC(=O)[C@@H](CC2CCCCC2)NC(=O)[C@@H]2CCCN2C(=O)[C@@H]2CSC(=N2)c2cc3c(cccc3s2)C[C@@H](C(N)=O)NC1=O [2-1] | +++ (60%<HLM residual rate (%)) | +++ (0.5<Pe (10^−6 cm/s))
N=C(N)NCCC[C@@H]1NC(=O)[C@H](Cc2c[nH]c3ccccc23)NC(=O)[C@@H](CC2CCCCC2)NC(=O)[C@@H]2CCCN2C(=O)[C@@H]2CSC(=N2)c2ccncc2C[C@@H](C(N)=O)NC1=O [2-5] | ++ (40%<HLM residual rate (%)≤60%) | ++ (0.2<Pe (10^−6 cm/s)≤0.5)
N=C(N)NCCC[C@@H]1NC(=O)[C@H](Cc2c[nH]c3ccccc23)NC(=O)[C@@H](CC2CCCCC2)NC(=O)[C@@H]2CCCN2C(=O)[C@@H]2CSC(=N2)c2cccnc2C[C@@H](C(N)=O)NC1=O [2-6] | +++ (60%<HLM residual rate (%)) | ++ (0.2<Pe (10^−6 cm/s)≤0.5)
N=C(N)NCCC[C@@H]1NC(=O)[C@H](Cc2c[nH]c3ccccc23)NC(=O)[C@@H](CC2CCCCC2)NC(=O)[C@@H]2CCCN2C(=O)[C@@H]2CSC(=N2)c2cncc(c2)C[C@@H](C(N)=O)NC1=O [2-7] | +++ (60%<HLM residual rate (%)) | +++ (0.5<Pe (10^−6 cm/s))
N=C(N)NCCC[C@@H]1NC(=O)[C@H](Cc2c[nH]c3ccccc23)NC(=O)[C@@H](CC2CCCCC2)NC(=O)[C@@H]2CCCN2C(=O)[C@@H]2CSC(=N2)c2cccc(n2)C[C@@H](C(N)=O)NC1=O [2-9] (P[dCha]WR[2Pal(6-thiazolin-2-yl-4R-CO)]-NH2; lactam N-5) | +++ (60%<HLM residual rate (%)) | 
N=C(N)NCCC[C@@H]1NC(=O)[C@H](Cc2c[nH]c3ccccc23)NC(=O)[C@@H](CC2CCCCC2)NC(=O)[C@@H]2CCCN2C(=O)[C@@H]2CSC(=N2)c2ccnc(c2)C[C@@H](C(N)=O)NC1=O [2-10] | +++ (60%<HLM residual rate (%)) | +++ (0.5<Pe (10^−6 cm/s))
N=C(N)NCCC[C@@H]1NC(=O)[C@H](Cc2c[nH]c3ccccc23)NC(=O)[C@@H](CC2CCCCC2)NC(=O)[C@@H]2CCCN2C(=O)[C@@H]2CSC(=N2)c2ccc(nc2)C[C@@H](C(N)=O)NC1=O [2-11] | +++ (60%<HLM residual rate (%)) | +++ (0.5<Pe (10^−6 cm/s))
N=C(N)NCCC[C@@H]1NC(=O)[C@H](Cc2c[nH]c3ccccc23)NC(=O)[C@@H](CC2CCCCC2)NC(=O)[C@@H]2CCCN2C(=O)[C@@H]2CSC(=N2)c2cnc(cn2)C[C@@H](C(N)=O)NC1=O [2-13] | +++ (60%<HLM residual rate (%)) | 
N=C(N)NCCC[C@@H]1NC(=O)[C@H](Cc2c[nH]c3ccccc23)NC(=O)[C@@H](CC2CCCCC2)NC(=O)[C@@H]2CCCN2C(=O)[C@@H]2CSC(=N2)c2cncc(n2)C[C@@H](C(N)=O)NC1=O [2-14] | +++ (60%<HLM residual rate (%)) | 
N=C(N)NCCC[C@@H]1NC(=O)[C@H](Cc2c[nH]c3ccccc23)NC(=O)[C@@H](CC2CCCCC2)NC(=O)[C@@H]2CCCN2C(=O)[C@@H]2CSC(=N2)c2ccc(nn2)C[C@@H](C(N)=O)NC1=O [2-15] | ++ (40%<HLM residual rate (%)≤60%) | 
N=C(N)NCCC[C@@H]1NC(=O)[C@H](Cc2c[nH]c3ccccc23)NC(=O)[C@@H](CC2CCCCC2)NC(=O)[C@@H]2CCCN2C(=O)[C@@H]2CSC(=N2)c2cc(cs2)C[C@@H](C(N)=O)NC1=O [2-16] | ++ (40%<HLM residual rate (%)≤60%) | +++ (0.5<Pe (10^−6 cm/s))
N=C(N)NCCC[C@@H]1NC(=O)[C@H](Cc2c[nH]c3ccccc23)NC(=O)[C@@H](CC2CCCCC2)NC(=O)[C@@H]2CCCN2C(=O)[C@@H]2CSC(=N2)c2nc(cs2)C[C@@H](C(N)=O)NC1=O [2-18] | ++ (40%<HLM residual rate (%)≤60%) | 
N=C(N)NCCC[C@@H]1NC(=O)[C@H](Cc2c[nH]c3ccccc23)NC(=O)[C@@H](CC2CCCCC2)NC(=O)[C@@H]2CCCN2C(=O)[C@@H]2CSC(=N2)c2csc(n2)C[C@@H](C(N)=O)NC1=O [2-19] | +++ (60%<HLM residual rate (%)) | +++ (0.5<Pe (10^−6 cm/s))
N=C(N)NCCC[C@@H]1NC(=O)[C@H](Cc2c[nH]c3ccccc23)NC(=O)[C@@H](CC2CCCCC2)NC(=O)[C@@H]2CCCN2C(=O)[C@@H]2CSC(=N2)c2n[nH]cc2C[C@@H](C(N)=O)NC1=O [2-20] | ++ (40%<HLM residual rate (%)≤60%) | 
CC1(C)SC2=N[C@@H]1C(=O)N1CCC[C@H]1C(=O)N[C@H](CC1CCCCC1)C(=O)N[C@@H](Cc1c[nH]c3ccccc13)C(=O)N[C@@H](CCCNC(=N)N)C(=O)N[C@H](C(N)=O)Cc1cccc2n1 [2-21] | +++ (60%<HLM residual rate (%)) | +++ (0.5<Pe (10^−6 cm/s))
COc1cc2cnc1C1=N[C@@H](CS1)C(=O)N1CCC[C@H]1C(=O)N[C@H](CC1CCCCC1)C(=O)N[C@@H](Cc1c[nH]c3ccccc13)C(=O)N[C@@H](CCCNC(=N)N)C(=O)N[C@H](C(N)=O)C2 [2-22] | +++ (60%<HLM residual rate (%)) | ++ (0.2<Pe (10^−6 cm/s)≤0.5)
N=C(N)NCCC[C@@H]1NC(=O)[C@H](Cc2c[nH]c3ccccc23)NC(=O)[C@@H](CC2CCCCC2)NC(=O)[C@@H]2CCCN2C(=O)[C@@H]2CSC(=N2)c2cc3cc(ccc3[nH]2)C[C@@H](C(N)=O)NC1=O [3-2] | +++ (60%<HLM residual rate (%)) | +++ (0.5<Pe (10^−6 cm/s))
N=C(N)NCCC[C@@H]1NC(=O)[C@H](Cc2c[nH]c3ccccc23)NC(=O)[C@@H](CC2CCCCC2)NC(=O)[C@@H]2CCCN2C(=O)[C@@H]2CSC(=N2)c2ncccc2C[C@@H](C(N)=O)NC1=O [3-3] | +++ (60%<HLM residual rate (%)) | 
N=C(N)NCCC[C@@H]1NC(=O)[C@H](Cc2c[nH]c3ccccc23)NC(=O)[C@@H](CC2CCCCC2)NC(=O)[C@@H]2CCCN2C(=O)[C@@H]2CSC(=N2)c2cccc(c2)C[C@@H](C(N)=O)NC1=O [3-4] (P[dCha]WR[Phe(3-(4R-CO-2-thiazolinyl))]-NH2; lactam N-5) | +++ (60%<HLM residual rate (%)) | +++ (0.5<Pe (10^−6 cm/s))
N=C(N)NCCCC1NC(=O)[C@H](Cc2c[nH]c3ccccc23)NC(=O)[C@@H](CC2CCCCC2)NC(=O)[C@@H]2CCCN2C(=O)c2csc(n2)-c2cccc(c2)C[C@@H](C(N)=O)NC1=O (some centres unmarked) [6-1] | +++ (60%<HLM residual rate (%)) | +++ (0.5<Pe (10^−6 cm/s))
C[C@@H]1NC(=O)CSC[C@@H](C(N)=O)NC(=O)[C@H](CCCNC(=N)N)NC(=O)[C@H](Cc2c[nH]c3ccccc23)NC(=O)[C@@H](CC2CCCCC2)NC(=O)[C@@H]2CCCN2C1=O [7-1] ({CH2CO}-AP[dCha]WRC-NH2; thioether N-6) | + (HLM residual rate (%)≤40%) | + (0.01<Pe (10^−6 cm/s)≤0.2)
